From patent US10626094B2 (La Jolla Institute of Allergy & Immunology, priority 2014, dated 2020)

Biological target: LMPTP-A (Low Molecular Weight Protein Tyrosine Phosphatase-A) enzyme (Homo sapiens (Human), UniProt P24666)
Assay: LMPTP primary screening / LMPTP (OMFP) enzyme inhibition assay, fluorescence intensity
Format: biochemical
Settings: LMPTP-A, OMFP substrate, method of Example 2; read-out: IC50
Description: This assay attempts to identify inhibitors of the LMPTP-A (Low Molecular Weight Protein Tyrosine Phosphatase-A) enzyme. It is run in 1536-well format and is measured via fluorescence intensity.
A listing of materials is provided: • Item, source, catalog no. • LMPTP-A Enzyme Stock Solution (4.22 mg/ml or 206.8 μM), SBMRI Protein Facility, • N/A • OMFP, Sigma, M2629-100MG • Bis-Tris pH 6.0, Fisher Sci, BP301-100 • Triton-X 100, Sigma, T9284 • DTT, Sigma, D9779 • Mol. Grade Water, Mediatech, Inc., 46-000-CM • 1536-well black High base opaque bottom plate, Nexus Biosystems, 00019120
Final assay conditions are: • 0.625 nM LMPTP-A Enzyme • 400 μM OMFP • 50 mM Bis-Tris pH 6.0 • 1 mM DTT • 0.01% Triton-X 100 • 20 μM test compound • 3% DMSO (2% from substrate and 1% from compounds) • 6 μL reaction volume • 50 minutes incubation at room temp
Assay Procedure • 1. Prepare Reagents as described in section F. Recipe. • 2. Using LabCyte Echo, transfer 60 nL from 2 mM test compound source plate into assay plate Col. 5-48 (final concentration of test compounds is 20 μM). 60 nL of DMSO should be transferred to col. 1-4 for positive and negative control wells. • 3. Spin plates at 1000 rpm for 1 minute in centrifuge. • 4. […] Using the Bioraptr, add 3 μL/well of enzyme solution to col. 3-48. • 6. Using the Bioraptr, add 3 μL/well of substrate solution to col. 1-48. • 7. Spin plates at 1000 rpm for 1 minute in centrifuge. • 8. Incubate plates in the dark at room temperature for 50 minutes. • 9. Read plates on PerkinElmer Viewlux using a FI protocol.

Chain of LMPTP-A (Low Molecular Weight Protein Tyrosine Phosphatase-A) enzyme (P24666 whole entry): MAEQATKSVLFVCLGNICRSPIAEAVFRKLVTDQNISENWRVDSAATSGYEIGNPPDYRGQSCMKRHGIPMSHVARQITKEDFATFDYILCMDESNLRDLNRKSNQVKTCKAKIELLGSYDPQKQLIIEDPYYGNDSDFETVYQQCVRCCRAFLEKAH

Row | IC50 [nM] | Compound
1 | 801 to 5000 | O=C(NCCO)c1ccc(-c2cc(NCCCN3CCCCC3)c3ccccc3n2)cc1 [Compound I227]
2 | > 5000 | COc1ccc(-c2cc(NCCCN3CCCCC3)c3cc(OC)ccc3n2)cc1 [Compound G25, [6-Methoxy-2-(4-methoxy-phenyl)-quinolin-4-yl]-(3-piperidin-1-yl-propyl)-amine]
3 | 801 to 5000 | O=C(O)CCC(=O)Nc1ccc(-c2cc(NCCCN3CCCCC3)c3ccccc3n2)cc1 [Compound I58]
4 | 200 to 800 | N#CCCNC(=O)c1ccc(-c2cc(NCCCN3CCCCC3)c3ccccc3n2)cc1 [Compound I59]
5 | 801 to 5000 | COc1ccc(-c2cc(NCc3ccc(CN4CCCCC4)cc3)c3ccccc3n2)cc1 [Compound I210, [2-(4-methoxyphenyl)(4-quinolyl)]{[4-(piperidylmethyl)phenyl]methyl}amine]
6 | > 5000 | CN(C)Cc1cccc(Nc2cc(-c3cc(C(F)(F)F)cc(C(F)(F)F)c3)nc3ccccc23)c1 [Compound I42, {[3-({2-[3,5-bis(trifluoromethyl)phenyl](4-quinolyl)}amino)phenyl]methyl}dimethylamine]
7 | 801 to 5000 | Clc1cccc(-c2cc(Nc3cccc(CC4CCNCC4)c3)c3ccccc3n2)c1 [Compound I20, [2-(3-chlorophenyl)(4-quinolyl)][3-(4-piperidylmethyl)phenyl]amine]
8 | 801 to 5000 | FC(F)(F)c1cc(Cl)ccc1-c1cc(NCCCN2CCCCC2)c2ccccc2n1 [Compound I119]
9 | 801 to 5000 | COc1ccc(-c2cc(Nc3ccc(CN4CCCCC4)cc3)c3ccccc3n2)cc1 [Compound I23, [2-(4-methoxyphenyl)(4-quinolyl)][4-(piperidylmethyl)phenyl]amine]
10 | > 5000 | c1ccc(-c2cc(NCCCN3CCOCC3)c3ccccc3n2)cc1 [Compound I179, (3-morpholin-4-ylpropyl)(2-phenyl(4-quinolyl))amine]
11 | 200 to 800 | O=C(NCCCO)c1ccc(-c2cc(NCCCN3CCCCC3)c3ccccc3n2)cc1 [Compound I67]
12 | 801 to 5000 | CCOc1ncccc1-c1cc(NCCCN2CCCCC2)c2ccccc2n1 [Compound I96]
13 | 801 to 5000 | {2-[3-chloro-2-(phenylmethoxy)(4-pyridyl)](4-quinolyl)}(3-piperidylpropyl)amine [Compound I88]
14 | 200 to 800 | O=C(c1ccc(-c2cc(NCCCN3CCCCC3)c3ccccc3n2)cc1)N1CCNCC1 [Compound I193, piperazinyl 4-{4-[(3-piperidylpropyl)amino](2-quinolyl)}phenyl ketone]
15 | 801 to 5000 | COc1ccc(Cl)cc1-c1cc(NCCCN2CCCCC2)c2ccccc2n1 [Compound I133]
16 | > 5000 | Clc1cccc(Nc2cc(NCCCN3CCCCC3)c3ccccc3n2)c1 [Compound I76]
17 | 200 to 800 | CNC(=O)c1ccc(-c2cc(NCCCN3CCCCC3)c3ccccc3n2)cc1Cl [Compound I251]
18 | > 5000 | CC(=O)Nc1ccccc1-c1cc(NCCCN2CCCCC2)c2ccccc2n1 [Compound I116]
19 | 801 to 5000 | COc1ccc(-c2cc(NCCCN3CCCCC3)c3cc(F)ccc3n2)cc1 [Compound G30, [6-Fluoro-2-(4-methoxy-phenyl)-quinolin-4-yl]-(3-piperidin-1-yl-propyl)-amine]
20 | 200 to 800 | N#CCCNC(=O)c1ccc(-c2cc(NCCCN3CCCCC3)c3ccccc3n2)cc1 [Compound I265]
21 | 801 to 5000 | Cc1nc(C)c(-c2cc(NCCCC3CCCNC3)c3ccccc3n2)s1 (stereo not drawn) [Compound I176, [2-(2,4-dimethyl(1,3-thiazol-5-yl))(4-quinolyl)](3-piperidylpropyl)amine]
22 | > 5000 | CN1CCCC1CCNc1cc(-c2cc(C(F)(F)F)cc(C(F)(F)F)c2)nc2ccccc12 (stereo not drawn) [Compound I46, {2-[3,5-bis(trifluoromethyl)phenyl](4-quinolyl)}[2-(1-methylpyrrolidin-2-yl)ethyl]amine]
23 | 200 to 800 | CC(=O)NCc1ccc(-c2cc(NCCCN3CCCCC3)c3ccccc3n2)cc1 [Compound I255]
24 | > 5000 | CCOC(=O)c1ccc(Nc2cc(-c3ccc(OC)cc3)nc3ccccc23)cc1 [Compound G45, ethyl 4-{[2-(4-methoxyphenyl)-4-quinolyl]amino}benzoate]
25 | 801 to 5000 | Clc1cccc(-c2cc(Nc3cccc(CN4CCCC4)c3)c3ccccc3n2)c1 [Compound I12, [2-(3-chlorophenyl)(4-quinolyl)][3-(pyrrolidinylmethyl)phenyl]amine]

Row | IC50 [nM] | Compound
26 | > 5000 | c1ccc(CSc2cccc(-c3cc(NCCCN4CCCCC4)c4ccccc4n3)c2)cc1 [Compound I245]
27 | 801 to 5000 | Fc1ccc(-c2cc(NCCCN3CCCCC3)c3ccccc3n2)c(F)n1 [Compound I90]
28 | 801 to 5000 | CN(C)c1cc(-c2ccc(OC(F)(F)F)cc2)nc2ccccc12 [Compound G5, N,N-dimethyl-2-(4-(trifluoromethoxy)phenyl)quinolin-4-amine]
29 | 801 to 5000 | O=C(c1ccc(-c2cc(NCCCN3CCCCC3)c3ccccc3n2)cc1)N1CCCCC1 [Compound I194, piperidyl 4-{4-[(3-piperidylpropyl)amino](2-quinolyl)}phenyl ketone]
30 | 801 to 5000 | N-ethyl-N-methyl(4-{4-[(3-piperidylpropyl)amino](2-quinolyl)}phenyl)carboxamide [Compound I60]
31 | > 5000 | FC(F)(F)c1ccc(C(F)(F)F)c(-c2cc(Nc3cccc(CC4CCN(Cc5ccccc5)CC4)c3)c3ccccc3n2)c1 [Compound I40, {2-[2,5-bis(trifluoromethyl)phenyl](4-quinolyl)}(3-{[1-benzyl(4-piperidyl)]methyl}phenyl)amine]
32 | 801 to 5000 | O=S(=O)(c1ccccc1)n1ccc2cc(-c3cc(NCCCN4CCCCC4)c4ccccc4n3)ccc21 [Compound I260]
33 | > 5000 | NC(=O)c1ccc(-c2cc(Nc3cccc(CN4CCCC4)c3)c3ccccc3n2)cc1 [Compound I5, 4-(4-{[3-(pyrrolidinylmethyl)phenyl]amino}-2-quinolyl)benzamide]
34 | 801 to 5000 | CN1CCC(Cc2cccc(Nc3cc(-c4cccc(Cl)c4)nc4ccccc34)c2)CC1 [Compound I18, [2-(3-chlorophenyl)(4-quinolyl)]{3-[(1-methyl(4-piperidyl))methyl]phenyl}amine]
35 | 801 to 5000 | c1ccc(-c2ccc(-c3cc(NCCCN4CCCCC4)c4ccccc4n3)cc2)cc1 [Compound I243]
36 | > 5000 | CCN(CC)CCCNc1cc(-c2ccc(C(N)=O)cc2)nc2ccccc12 [Compound I218, 4-(4-{[3-(diethylamino)propyl]amino}-2-quinolyl)benzamide]
37 | 801 to 5000 | FC(F)(F)c1ncccc1-c1cc(NCCCN2CCCCC2)c2ccccc2n1 [Compound I153]
38 | 200 to 800 | CN(C)CCNC(=O)c1ccc(-c2cc(NCCCN3CCCCC3)c3ccccc3n2)cc1 [Compound I66]
39 | 801 to 5000 | [2-(3,4-dichlorophenyl)(4-quinolyl)](3-piperidylpropyl)amine [Compound I138]
40 | 801 to 5000 | COc1ccc(-c2cc(NC(C)c3ccccc3)c3ccccc3n2)cc1 (stereo not drawn) [Compound G76]
41 | 801 to 5000 | CC(=O)Nc1ccc(-c2cc(NCCCN3CCCCC3)c3ccccc3n2)cc1F [Compound I232]
42 | 801 to 5000 | O=C(NC1CC1)c1ccc(-c2cc(NCCCN3CCCCC3)c3ccccc3n2)cc1 [Compound I271]
43 | 801 to 5000 | Fc1cccnc1-c1cc(NCCCN2CCCCC2)c2ccccc2n1 [Compound I94]
44 | 200 to 800 | CN(C)Cc1cccc(Nc2cc(-c3cccc(Cl)c3)nc3ccccc23)c1 [Compound I22, [(3-{[2-(3-chlorophenyl)(4-quinolyl)]amino}phenyl)methyl]dimethylamine]
45 | 801 to 5000 | COc1ccc(-c2cc(Nc3cccc(CN4CCN(C)CC4)c3)c3ccccc3n2)cc1 [Compound G60, [2-(4-methoxyphenyl)(4-quinolyl)]{3-[(4-methylpiperazinyl)methyl]phenyl}amine]
46 | 801 to 5000 | CN(C)S(=O)(=O)c1ccc(C(F)(F)F)c(-c2cc(NCCCN3CCCCC3)c3ccccc3n2)c1 [Compound I106]
47 | > 5000 | Cn1cc(-c2cc(NCCCN3CCCCC3)c3ccccc3n2)cn1 [Compound G18, [2-(1-Methyl-1H-pyrazol-4-yl)-quinolin-4-yl]-(3-piperidin-1-yl-propyl)-amine]
48 | 801 to 5000 | CCOc1ccc(C(F)(F)F)c(-c2cc(NCCCN3CCCCC3)c3ccccc3n2)c1 [Compound I105]
49 | 801 to 5000 | FC(F)(F)c1ccccc1-c1cc(NCCCN2CCCCC2)c2ccccc2n1 [Compound G1, (3-piperidin-1-yl-propyl)-[2-(2-trifluoromethyl-phenyl)-quinolin-4-yl]-amine]

Row | Compound | IC50 [nM]
50 | CC(C)(C)OC(=O)n1c(-c2cc(NCCCN3CCCCC3)c3ccccc3n2)cc2ccccc21 [Compound I98, tert-butyl 2-{4-[(3-piperidylpropyl)amino]-2-quinolyl}indolecarboxylate] | > 5000
51 | COc1ccc(-c2cc(NCc3ccc(Cl)cc3)c3ccccc3n2)cc1 [Compound G74, [(4-chlorophenyl)methyl][2-(4-methoxyphenyl)(4-quinolyl)]amine] | 801 to 5000
